Reference: patent US9150632B2 (Indiana University Research and Technology Corporation, priority 2009, dated 2015)
Non-standard residues stand in square brackets, D forms with d. Residues, ends and D or L forms follow the SMILES beside them. No end group written: not given here. *: point of attachment. Palmitoyl = CCCCCCCCCCCCCCCC(=O)*; Aib = CC(C)(N)C(=O)O

How the values were obtained:
[1] = target: T1, glucagon receptor (Homo sapiens, UniProt P47871); experiment: Functional assay-cAMP synthesis, luciferase reporter in HEK293 cells, glucagon receptor; type: cell-based; conditions: for Glucagon Receptor % relative activity: activity relative to the native hormone at the indicated receptor; for EC50: cAMP induction, in vitro, as in Example 14
T1 construct: expressed in transfected cells; host or cells: HEK293
T1 sequence (P47871 26-477): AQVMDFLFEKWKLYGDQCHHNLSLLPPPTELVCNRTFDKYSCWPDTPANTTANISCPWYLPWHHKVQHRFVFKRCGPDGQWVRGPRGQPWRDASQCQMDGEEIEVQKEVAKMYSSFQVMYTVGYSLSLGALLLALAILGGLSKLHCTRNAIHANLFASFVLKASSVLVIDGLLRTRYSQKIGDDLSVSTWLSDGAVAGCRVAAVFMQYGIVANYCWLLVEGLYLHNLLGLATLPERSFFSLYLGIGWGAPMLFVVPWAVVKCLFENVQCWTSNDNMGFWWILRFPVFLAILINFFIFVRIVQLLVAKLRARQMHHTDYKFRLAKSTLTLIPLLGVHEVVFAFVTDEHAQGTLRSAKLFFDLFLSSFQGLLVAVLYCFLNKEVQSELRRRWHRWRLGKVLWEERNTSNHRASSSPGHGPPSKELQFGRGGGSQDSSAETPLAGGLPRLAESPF
Experimental: (§1) Peptide absorbance readings were obtained from UV Absorbance measurements at 280 nm on a Genesys 6 Spectrophotometer (Thermo Electron Corporation). Beer's Law was used to calculate solution concentrations based on the number of tryptophan and tyrosine residues in each analog. At the end of the incubation, 100 μL LucLite luminescence substrate reagent was added to each well, the plate sealed and shaken, and placed into a Wallac Trilux luminescence counter for cAMP detection.
(§2) HEK293 cells were co-transfected with the GcgR or GLP-1R cDNAs and a luciferase reporter gene-linked to a cAMP response element (CRE). […] The plate was incubated for 10 min in the dark and light output was quantified on a MicroBeta1450 liquid scintillation counter (Perkin-Elmer, Wellesley, Mass.).

[2] = target: T2, GLP-1 receptor (Homo sapiens, UniProt P43220); conditions: for GLP-1 Receptor % relative activity: activity relative to the native hormone at the indicated receptor
T2 sequence (P43220 24-463, species assumed): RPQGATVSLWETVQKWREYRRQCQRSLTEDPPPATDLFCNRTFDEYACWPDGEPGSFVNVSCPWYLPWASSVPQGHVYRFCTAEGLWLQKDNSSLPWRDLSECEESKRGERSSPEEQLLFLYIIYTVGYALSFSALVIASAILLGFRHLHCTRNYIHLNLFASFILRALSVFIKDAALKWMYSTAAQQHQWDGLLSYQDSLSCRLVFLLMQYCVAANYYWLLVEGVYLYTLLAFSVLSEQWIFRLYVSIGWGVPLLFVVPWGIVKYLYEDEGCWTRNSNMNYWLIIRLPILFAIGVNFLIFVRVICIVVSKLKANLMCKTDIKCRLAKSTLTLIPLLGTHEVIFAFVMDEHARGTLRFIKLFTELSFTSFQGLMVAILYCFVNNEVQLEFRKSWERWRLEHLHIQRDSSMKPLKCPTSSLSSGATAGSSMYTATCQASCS
Experimental: as §1, §2

[3] = target: T2, GLP-1 receptor; experiment: cell-based
Experimental: as §1, §2

[4] = target: T3, GIP receptor (Homo sapiens, UniProt P48546); experiment: Functional assay-cAMP synthesis, luciferase reporter in HEK293 cells, GIP receptor; type: cell-based; conditions: for GIP Receptor % relative activity: activity relative to the native hormone at the indicated receptor; for EC50: cAMP induction, in vitro, as in Example 14
T3 construct: expressed in transfected cells; host or cells: HEK293
T3 sequence (P48546 22-466): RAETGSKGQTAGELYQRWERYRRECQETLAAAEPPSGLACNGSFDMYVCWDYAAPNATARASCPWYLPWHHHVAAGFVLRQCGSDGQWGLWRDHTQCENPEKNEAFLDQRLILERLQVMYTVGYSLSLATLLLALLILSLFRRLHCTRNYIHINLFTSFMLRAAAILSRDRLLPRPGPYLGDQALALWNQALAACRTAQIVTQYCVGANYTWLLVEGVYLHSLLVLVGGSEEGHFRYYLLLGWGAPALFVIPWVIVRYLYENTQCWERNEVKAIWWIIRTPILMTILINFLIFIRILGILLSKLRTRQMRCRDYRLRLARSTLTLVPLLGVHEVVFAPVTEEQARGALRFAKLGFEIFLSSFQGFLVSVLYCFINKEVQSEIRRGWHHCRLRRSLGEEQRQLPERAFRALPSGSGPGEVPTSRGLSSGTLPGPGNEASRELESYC

[5] = pH 7
[6] = Body weight, body composition and food intake in diet-induced obesity (DIO) mice; type: in vivo
Experimental: […] 6 mice per group with initial average body weight of 44 g were tested. Body weight, body composition, food intake, and blood glucose levels were determined periodically.
Body weight was measured before injection and at 1, 3, 5, and 7 days post-injection.
Changes in body weight of and food intake by the mice were measured 0, 1, 3, 5, 7, 8, 10, 12, and 14 days after injection. Blood glucose levels of the mice were monitored throughout the 14 days. Glucose tolerance tests were performed by injecting a 25% glucose in saline solution 1 hour or 24 hours after administration of the acylated or pegylated peptide and measuring blood glucose levels at −60, 0, 15, 30, 60, or 120 min after the glucose injection.
The acylated glucagon analogs were as follows:
C57BI/6 mice were obtained from Jackson Laboratories and fed a diabetogenic diet from Research Diets, a high sucrose diet with 58% kcal from fat. Mice were single or group-housed on a 12:12-h light-dark cycle at 22° C. with free access to food and water. All studies were approved by and performed according to the guidelines of the Institutional Animal Care and Use Committee of the University of Cincinnati.
Whole body composition (fat and lean mass) was measured using NMR technology (EchoMRI, Houston, Tex.).
The peptides were administered daily for two weeks to 11 groups of 8 C57Bl/6 mice by subcutaneous injection at a dose of 10 or 30 nmol/kg. […]

[7] = Table 35, relative to the native hormone

Compound	Glucagon Receptor % relative activity [1] [%]	GLP-1 Receptor % relative activity [2] [%]	EC50 [3] [nM]	GIP Receptor % relative activity [4] [%]	EC50 [1] [nM]	EC50 [4] [nM]	other results
CC[C@H](C)[C@H](NC(=O)[C@H](Cc1ccccc1)NC(=O)[C@H](CCC(=O)O)NC(=O)[C@H](CCCCN)NC(=O)[C@H](C)NC(=O)[C@H](C)NC(=O)[C@H](CCC(N)=O)NC(=O)C(C)(C)NC(=O)[C@H](CC(=O)O)NC(=O)[C@H](CC(C)C)NC(=O)[C@H](Cc1ccc(O)cc1)NC(=O)[C@H](CCCCN)NC(=O)[C@H](CO)NC(=O)[C@H](Cc1ccc(O)cc1)NC(=O)[C@H](CC(=O)O)NC(=O)[C@H](CO)NC(=O)[C@@H](NC(=O)[C@H](Cc1ccccc1)NC(=O)[C@@H](NC(=O)CNC(=O)[C@H](CCC(N)=O)NC(=O)C(C)(C)NC(=O)[C@@H](N)Cc1c[nH]cn1)[C@@H](C)O)[C@@H](C)O)C(=O)N[C@@H](CS)C(=O)N[C@@H](Cc1c[nH]c2ccccc12)C(=O)N[C@@H](CC(C)C)C(=O)N[C@@H](CCSC)C(=O)N[C@@H](CC(N)=O)C(=O)NCC(=O)NCC(=O)N1CCC[C@H]1C(=O)N[C@@H](CO)C(=O)N[C@@H](CO)C(=O)NCC(=O)N[C@@H](C)C(=O)N1CCC[C@H]1C(=O)N1CCC[C@H]1C(=O)N1CCC[C@H]1C(=O)N[C@@H](CO)C(=O)N[C@@H](CCCCN)C(N)=O [mt-348] (H-H[Aib]QGTFTSDYSKYLD[Aib]QAAKEFICWLMNGGPSSGAPPPSK-NH2)	8.16	148.65	0.0037	0.15			% Relative activity at the Receptor for Glucagon [1, 7]: 8.2%; % Relative activity at the Receptor for GLP-1 [2, 7]: 149%; % Relative activity at the Receptor for GIP [4, 7]: 0.2%
CC[C@H](C)[C@H](NC(=O)[C@H](CO)NC(=O)[C@H](Cc1ccc(O)cc1)NC(=O)[C@H](CC(=O)O)NC(=O)[C@H](CO)NC(=O)[C@@H](NC(=O)[C@H](Cc1ccccc1)NC(=O)[C@@H](NC(=O)CNC(=O)[C@H](CCC(N)=O)NC(=O)C(C)(C)NC(=O)[C@@H](N)Cc1c[nH]cn1)[C@@H](C)O)[C@@H](C)O)C(=O)N[C@@H](Cc1ccc(O)cc1)C(=O)N[C@@H](CC(C)C)C(=O)N[C@@H](CC(=O)O)C(=O)NC(C)(C)C(=O)N[C@@H](CCC(N)=O)C(=O)N[C@@H](C)C(=O)N[C@@H](C)C(=O)N[C@@H](CCCCN)C(=O)N[C@@H](CCC(=O)O)C(=O)N[C@@H](Cc1ccccc1)C(=O)N[C@H](C(=O)N[C@@H](CC(N)=O)C(=O)N[C@@H](Cc1c[nH]c2ccccc12)C(=O)N[C@@H](CC(C)C)C(=O)N[C@@H](CCSC)C(=O)N[C@@H](CC(N)=O)C(=O)NCC(=O)NCC(=O)N1CCC[C@H]1C(=O)N[C@@H](CO)C(=O)N[C@@H](CO)C(=O)NCC(=O)N[C@@H](C)C(=O)N1CCC[C@H]1C(=O)N1CCC[C@H]1C(=O)N1CCC[C@H]1C(=O)N[C@@H](CO)C(=O)N[C@@H](CCCCN)C(N)=O)C(C)C [mt-361] (H-H[Aib]QGTFTSDYSIYLD[Aib]QAAKEFVNWLMNGGPSSGAPPPSK-NH2)	3.61	226.35	0.0109	0.29	1.77	1.05	
CCCCCCCCCCCCCCCC(=O)NCCCC[C@H](NC(=O)[C@H](CO)NC(=O)[C@@H]1CCCN1C(=O)[C@@H]1CCCN1C(=O)[C@@H]1CCCN1C(=O)[C@H](C)NC(=O)CNC(=O)[C@H](CO)NC(=O)[C@H](CO)NC(=O)[C@@H]1CCCN1C(=O)CNC(=O)CNC(=O)[C@H](CC(N)=O)NC(=O)[C@H](CCSC)NC(=O)[C@H](CC(C)C)NC(=O)[C@H](Cc1c[nH]c2ccccc12)NC(=O)[C@H](CC(N)=O)NC(=O)[C@@H](NC(=O)[C@H](Cc1ccccc1)NC(=O)[C@H](CCC(=O)O)NC(=O)[C@H](CCCCN)NC(=O)[C@H](C)NC(=O)[C@H](C)NC(=O)[C@H](CCC(N)=O)NC(=O)C(C)(C)NC(=O)[C@H](CC(=O)O)NC(=O)[C@H](CC(C)C)NC(=O)[C@H](Cc1ccc(O)cc1)NC(=O)[C@@H](NC(=O)[C@H](CO)NC(=O)[C@H](Cc1ccc(O)cc1)NC(=O)[C@H](CC(=O)O)NC(=O)[C@H](CO)NC(=O)[C@@H](NC(=O)[C@H](Cc1ccccc1)NC(=O)[C@@H](NC(=O)CNC(=O)[C@H](CCC(N)=O)NC(=O)C(C)(C)NC(=O)[C@@H](N)Cc1c[nH]cn1)[C@@H](C)O)[C@@H](C)O)[C@@H](C)CC)C(C)C)C(N)=O [mt-362] (H-H[Aib]QGTFTSDYSIYLD[Aib]QAAKEFVNWLMNGGPSSGAPPPSK(Palmitoyl)-NH2; N-terminus assumed)	83.17	240.96	0.102	3.95	0.0768	0.0782	agonist activity at the GIP receptor ([4]; text on Table 34): exceptionally potent activity
CC[C@H](C)[C@H](NC(=O)[C@H](Cc1ccccc1)NC(=O)[C@H](CCC(=O)O)NC(=O)[C@H](CCCCN)NC(=O)[C@H](C)NC(=O)[C@H](C)NC(=O)[C@H](CCC(N)=O)NC(=O)[C@H](CCC(=O)O)NC(=O)[C@H](CC(=O)O)NC(=O)[C@H](CC(C)C)NC(=O)[C@H](Cc1ccc(O)cc1)NC(=O)[C@H](CCCCN)NC(=O)[C@H](CO)NC(=O)[C@H](Cc1ccc(O)cc1)NC(=O)[C@H](CC(=O)O)NC(=O)[C@H](CO)NC(=O)[C@@H](NC(=O)[C@H](Cc1ccccc1)NC(=O)[C@@H](NC(=O)CNC(=O)[C@H](CCC(N)=O)NC(=O)C(C)(C)NC(=O)[C@@H](N)Cc1c[nH]cn1)[C@@H](C)O)[C@@H](C)O)C(=O)N[C@@H](C)C(=O)N[C@@H](Cc1c[nH]c2ccccc12)C(=O)N[C@@H](CC(C)C)C(=O)N[C@@H](CCSC)C(=O)N[C@@H](CC(N)=O)C(=O)NCC(=O)NCC(=O)N1CCC[C@H]1C(=O)N[C@@H](CO)C(=O)N[C@@H](CO)C(=O)NCC(=O)N[C@@H](C)C(=O)N1CCC[C@H]1C(=O)N1CCC[C@H]1C(=O)N1CCC[C@H]1C(=O)N[C@@H](CO)C(=O)N[C@@H](CCCCN)C(N)=O [mt-363]	7.76	671.66	0.0037	0.73	0.823	0.425	
Glucagon, Cys17PEG5K: Glucagon Cys17(1-29) reacted with mPEG-Mal-5000							Percent Soluble [5]: 94%
HXQGTFTSDYSKYLDEQAAKEFICWLMNT-NH2 [Chimera-2-AIB^2 Cys^24-40 kD]							ability to lower body weight ([6]; i.p. 15 or 70 nmol/kg, 7 days post-injection): comparable ability to lower body weight
Peptide U: SEQ ID NO: 1 with Glu16, Gln17, Ala18, Lys20, Glu21, Ile23, Cys24 with 20-kd pegylation, no AIB2, no lactam (HSQGTFTSDYSKYLDEQAAKEFIC(PEG 20 kDa)WLMNT)							body weight lowering ([6]; each day for one week at 50 nmol/kg s.c.): -13.71 ± 0.92 g
